Laboratory results published in patent US9724334B1, “Method for treating a neurodegenerative disease or depression comprising administering derivatives of 2-amino-2-(1-dodecyl-1H-1,2,3-triazol-4-yl)propane-1,3-diol” (Kyungpook National University Industry-Academic Cooperation …, priority 2016, dated 2017).

Tested on: APP/PS1 mice
Experiment: Real-time quantitative PCR of inflammatory cytokines (TNF-α, IL-1b, IL-6) in brain of APP/PS1 mice
Assay type: in vivo, mouse
Details: mRNA, cerebral cortex, 100 mg/kg/day via drinking water, versus wild-type
Method: To confirm the therapeutic effect of the novel ASM inhibitory compounds, the novel ASM inhibitory compound or AMI were fed via drinking water at a dose of 100 mg/kg/day to mice at 5.5 months of age. Three months after the feeding, behavioral analysis on the mice was performed, followed by sampling of mouse brain tissues (FIG. 3).
Real-time quantitative PCR was used to measure the expression levels of inflammatory cytokines (TNF-α, IL-1b, and IL-6). Total RNAs were extracted from brain tissues using RNeasy Plus mini kit (Qiagen, Korea, Ltd.), while cDNAs were synthesized from 5 μg of total RNAs using a kit from Clontech (Mountain View, Calif.). Also, using Corbett research RG-6000 real-time PCR instrument, PCR was performed at 95° C. for 10 minutes; 95° C. for 10 seconds; 58° C. for 15 seconds; 72° C. for 20 seconds as one cycle, while real-time quantitative PCR was performed in which 40 cycles were repeated.
In order to determine the effect of the novel ASM inhibitory compounds according to the present invention on the change of nerve inflammation in the APP/PS1 mice, the present inventors observed a change in astrocytes of their brains.

CCCCCCCCCCCCn1cc(C(N)(CO)CO)nn1 [Chemical Formula 2, 2-amino-2-(1-dodecyl-1H-1,2,3-triazol-4-yl)propane-1,3-diol]
restored to their normal levels: gene expression of IL-1b | gene expression of IL-6 | gene expression of TNF-α
